Measured values from patent publication US12539324B2, “Antimicrobial peptide stimulating sanitizing composition” (GOJO Industries, Inc., priority 2016, dated 2026).

What was measured:
Assay type in all cases: cell-based, human
[1] = tested on: HBD-1; assay: HBD-1 ELISA, dose response in NHEK culture medium; details: vs control culture medium
Protocol: (§1) To determine the optimal dose of active ingredient, test dose response studies were run using both Decorinyl® and Pamitoyl Pentapeptided-3. These test dose response studies were commissioned to determine the concentration of HBD-1 at various levels of the active ingredients. Neonatal Human Epidermal Keratinocytes (NHEK; Life Technology, Grand Island, NY, USA) were cultured with keratinocyte growth medium (KGM, Medium 154: M-154-500 Life Technology with supplements S-001, Life Technologies). NHEK were seeded into 96-well plates at a density of 10000 cells in 200 μl medium per well. After 48 hours, the cells were incubated with varying concentrations of each ingredient solution in a culture medium (KGM) overnight (16 hours) at 37° C., 5% CO2 and 95% humidity at four replicates for each concentration. Each of these active ingredients was tested at the following weight percents based on the weight of the total culture: 0.02 wt. %, 0.05 wt. %, 0.1 wt. %, 0.2 wt. %, 0.5 wt. %, 1.0 wt. %, 2.0 wt. %. Each of these compositions was compared to a control culture medium.
HBD-1 was detected using HBD-1 ELISA (enzyme-linked immunosorbent assay) developing kits (commercially available from Peprotech). […] The results were measured using a colorimeter, absorbance was measured at 450 nanometers (nm) within 30 minutes. […] The concentration of each sample was calculated using ELISA standard curve.

[2] = tested on: HBD-3; assay: HBD-3 ELISA, dose response in NHEK culture medium; details: vs control culture medium
Protocol: as §1, with “HBD-3” for “HBD-1”, “5-001,” for “S-001,”
HBD-3 was detected using HBD-3 ELISA developing kits (commercially available from Peprotech). […] The results were measured using a colorimeter, absorbance was measured at 450 nanometers (nm) within 30 minutes. […] The concentration of each sample was calculated using ELISA standard curve.

[3] = tested on: HBD-2; assay: HBD-2 ELISA, dose response in NHEK culture medium; details: 2.0 wt. %, vs control culture medium
Protocol: as §1, with “of HBD-2” for “of HBD-1”, “ingredients were” for “ingredients was”
HBD-2 was detected using HBD-2 ELISA developing kits (commercially available from Peprotech). […] The results were measured using a colorimeter, absorbance was measured at 450 nanometers (nm) within 30 minutes. […] The concentration of each sample was calculated using ELISA standard curve.

palmitoyl pentapeptide-3 [Pamitoyl Pentapeptided-3]
increase in HBD-1 concentration ([1]; 1.0 wt. %): 311% | increase in HBD-1 concentration ([1]; 2.0 wt. %): 1561% | increase in HBD-3 concentration ([2]; 1.0 wt. %): 1005% | increase in HBD-3 concentration ([2]; 2.0 wt. %): 1890% | increase in HBD-2 concentration [3]: 2800%
